In patent US20230234943A1, “TREX1 INHIBITORS AND USES THEREOF” (Tempest Therapeutics, Inc., priority 2020, published 2023):

Target: T1, Human TREX1 enzyme (amino acids 1-242) (Homo sapiens, UniProt Q9NSU2)
T1 construct: Human TREX1 enzyme (amino acids 1-242)
T1 sequence (Q9NSU2 1-242): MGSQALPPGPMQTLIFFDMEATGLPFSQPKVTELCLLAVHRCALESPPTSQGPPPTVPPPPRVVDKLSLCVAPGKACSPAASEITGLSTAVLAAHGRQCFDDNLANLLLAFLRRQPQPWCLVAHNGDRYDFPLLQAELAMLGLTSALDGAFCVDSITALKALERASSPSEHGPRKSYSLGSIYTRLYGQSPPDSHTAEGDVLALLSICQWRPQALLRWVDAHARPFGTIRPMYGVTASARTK
Assay: Human TREX1 enzymatic assay with dsDNA native oligonucleotide (Picogreen fluorescence)
Format: biochemical
Details: 2 mM dithiothreitol in assay buffer; 50 nM dsDNA oligonucleotide; 30 min preincubation at 25° C.; read-out: TREX1/Human + DTT IC50 AVG
Outline: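 TREX1 (0.8–0.16 nM final) preincubated with compound (300 μM–13 nM or 30 μM–1.5 nM, 2% DMSO) 30 min at 25 °C in Tris pH 7.7, 5 mM MgCl2, 2 mM DTT. Annealed dsDNA (50 nM) added for 5–15 min at 25 °C; EDTA quench with Picogreen fluorescence readout.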

| SMILES | IC50 [nM] |
| --- | --- |
| COc1cc(-c2nc3ccc(C(O)C(F)(F)F)cc3n2C2(C)COC2)c(F)c(O)c1O (stereo not shown) [Example 280, 3-fluoro-6-methoxy-4-(1-(3-methyloxetan-3-yl)-6-(2,2,2-trifluoro-1-hydroxyethyl)-1H-benzo[d]imidazol-2-yl)benzene-1,2-diol] | 100 to 1000 |
| COc1cc(-c2nc3nc(N4CCOCC4)ccc3n2C2CCOC2)cc(O)c1O (stereo not shown) [Example 287, 3-methoxy-5-(5-morpholino-1-(tetrahydrofuran-3-yl)-1H-imidazo[4,5-b]pyridin-2-yl)benzene-1,2-diol] | > 100000 |
| COc1cc(-c2nc3cc(-c4ccccn4)ccc3[nH]2)c(C)c(O)c1O [Example 289, 6-methoxy-3-methyl-4-[5-(pyridin-2-yl)-1H-1,3-benzodiazol-2-yl]benzene-1,2-diol] | 1000 to 10000 |
| Cc1c(-c2nc3ccccc3n2C2CCC2)cc(OC(C)C)c(O)c1O [Example 290, 4-(1-cyclobutyl-1H-1,3-benzodiazol-2-yl)-3-methyl-6-(propan-2-yloxy)benzene-1,2-diol] | 10000 to 100000 |
| COc1cc(-c2nc3ccccc3n2C23CC(C2)C3)c(C)c(O)c1O [Example 291, 4-(1-(bicyclo[1.1.1]pentan-1-yl)-1H-benzo[d]imidazol-2-yl)-6-methoxy-3-methylbenzene-1,2-diol] | 100 to 1000 |
| COc1cc(-c2nc3nc(N4CCC4)ccc3n2C2CCOC2)cc(O)c1O (stereo not shown) [Example 292, 5-(5-(azetidin-1-yl)-1-(tetrahydrofuran-3-yl)-1H-imidazo[4,5-b]pyridin-2-yl)-3-methoxybenzene-1,2-diol] | 10000 to 100000 |
| COc1cc(-c2nc3cc(N4CCC4)cc(C)c3[nH]2)cc(O)c1O [Example 293, 5-(5-(azetidin-1-yl)-7-methyl-1H-benzo[d]imidazol-2-yl)-3-methoxybenzene-1,2-diol] | > 100000 |
| COc1cc(-c2nc3ccc(-c4ccn[nH]4)cc3n2C2(C)COC2)c(F)c(O)c1O [Example 295, 3-fluoro-6-methoxy-4-(1-(3-methyloxetan-3-yl)-6-(1H-pyrazol-5-yl)-1H-benzo[d]imidazol-2-yl)benzene-1,2-diol] | ≤ 100 |
| COc1cc(-c2nc3ccc(-c4ncco4)cc3n2C2(C)COC2)c(F)c(O)c1O [Example 296, 3-fluoro-6-methoxy-4-(1-(3-methyloxetan-3-yl)-6-(oxazol-2-yl)-1H-benzo[d]imidazol-2-yl)benzene-1,2-diol] | ≤ 100 |
| COc1c(C)c(-c2nc3ccccc3n2C2CCC2)c(F)c(O)c1O [Example 297, 4-(1-cyclobutyl-1H-benzo[d]imidazol-2-yl)-3-fluoro-6-methoxy-5-methylbenzene-1,2-diol] | 10000 to 100000 |
| COc1cc(-c2nc3cc(Cl)c(Cl)cc3[nH]2)c(F)c(O)c1O [Example 300, 4-(5,6-dichloro-1H-benzo[d]imidazol-2-yl)-3-fluoro-6-methoxybenzene-1,2-diol] | 10000 to 100000 |
| COc1cc(-c2nc3c(Cl)c(Cl)ccc3n2C2(C)COC2)cc(O)c1O [Example 301, 5-(4,5-dichloro-1-(3-methyloxetan-3-yl)-1H-benzo[d]imidazol-2-yl)-3-methoxybenzene-1,2-diol] | 100 to 1000 |
| COc1cc(-c2nc3cc(Cl)c(Cl)cc3n2C2(C)COC2)cc(O)c1O [Example 302, 5-(5,6-dichloro-1-(3-methyloxetan-3-yl)-1H-benzo[d]imidazol-2-yl)-3-methoxybenzene-1,2-diol] | 100 to 1000 |
| COc1cc(-c2nc3cc(NC(=O)c4ccccc4)ccc3n2C2(C)COC2)c(F)c(O)c1O [Example 303, N-(2-(2-fluoro-3,4-dihydroxy-5-methoxyphenyl)-1-(3-methyloxetan-3-yl)-1H-benzo[d]imidazol-5-yl)benzamide] | ≤ 100 |
| COc1cc(-c2nc3cc(NC(=O)c4cccnc4)ccc3n2C2(C)COC2)c(F)c(O)c1O [Example 304, N-(2-(2-fluoro-3,4-dihydroxy-5-methoxyphenyl)-1-(3-methyloxetan-3-yl)-1H-benzo[d]imidazol-5-yl)nicotinamide] | 100 to 1000 |
| COc1cc(-c2nc3ccc(NC(=O)c4ccc(F)cc4)cc3n2C2(C)COC2)c(F)c(O)c1O [Example 305, 4-fluoro-N-(2-(2-fluoro-3,4-dihydroxy-5-methoxyphenyl)-1-(3-methyloxetan-3-yl)-1H-benzo[d]imidazol-6-yl)benzamide] | ≤ 100 |
| COc1cc(-c2nc3cc(NC(=O)c4ccncc4)ccc3n2C2(C)COC2)c(F)c(O)c1O [Example 306, N-(2-(2-fluoro-3,4-dihydroxy-5-methoxyphenyl)-1-(3-methyloxetan-3-yl)-1H-benzo[d]imidazol-5-yl)isonicotinamide] | ≤ 100 |
| COc1cc(-c2nc3ccc(C(=O)NC4CS(=O)(=O)C4)cc3n2C2(C)COC2)c(F)c(O)c1O [Example 307, N-(1,1-dioxidothietan-3-yl)-2-(2-fluoro-3,4-dihydroxy-5-methoxyphenyl)-1-(3-methyloxetan-3-yl)-1H-benzo[d]imidazole-6-carboxamide] | ≤ 100 |
| CNC(=O)c1ccc2c(c1)nc(-c1cc(OC)c(O)c(O)c1F)n2C1(C)COC1 [Example 308, 2-(2-fluoro-3,4-dihydroxy-5-methoxyphenyl)-N-methyl-1-(3-methyloxetan-3-yl)-1H-benzo[d]imidazole-5-carboxamide] | 100 to 1000 |
| CNC(=O)c1ccc2nc(-c3cc(OC)c(O)c(O)c3F)n(C3(C)CCC3)c2c1 [Example 310, 2-(2-fluoro-3,4-dihydroxy-5-methoxyphenyl)-N-methyl-1-(1-methylcyclobutyl)-1H-benzo[d]imidazole-6-carboxamide] | ≤ 100 |
| COc1cc(-c2nc3cc(NC(C)=O)ccc3n2C2(C)COC2)c(C)c(O)c1O [Example 311, N-(2-(3,4-dihydroxy-5-methoxy-2-methylphenyl)-1-(3-methyloxetan-3-yl)-1H-benzo[d]imidazol-5-yl)acetamide] | 100 to 1000 |
| COc1cc(-c2nc3cc(NC(C)=O)ccc3n2C2(C)COC2)c(F)c(O)c1O [Example 312, N-(2-(2-fluoro-3,4-dihydroxy-5-methoxyphenyl)-1-(3-methyloxetan-3-yl)-1H-benzo[d]imidazol-5-yl)acetamide] | ≤ 100 |

Results, then the molecule that gave them:

| IC50 [nM] | SMILES |
| --- | --- |
| ≤ 100 | COc1cc(-c2nc3cc(N4CCN(C)C(=O)C4)ccc3n2C2(C)COC2)c(F)c(O)c1O [Example 278, 4-(2-(2-fluoro-3,4-dihydroxy-5-methoxyphenyl)-1-(3-methyloxetan-3-yl)-1H-benzo[d]imidazol-5-yl)-1-methylpiperazin-2-one] |
| 100 to 1000 | COc1cc(-c2nc3ccc(CO)cc3n2C2(C)COC2)c(F)c(O)c1O [Example 281, 3-fluoro-4-(6-(hydroxymethyl)-1-(3-methyloxetan-3-yl)-1H-benzo[d]imidazol-2-yl)-6-methoxybenzene-1,2-diol] |
| 1000 to 10000 | COc1cc(-c2nc3ccc(N4CCC4)cc3n2C2COC2)c(C)c(O)c1O [Example 283, 4-(6-(azetidin-1-yl)-1-(oxetan-3-yl)-1H-benzo[d]imidazol-2-yl)-6-methoxy-3-methylbenzene-1,2-diol] |
| 1000 to 10000 | COc1cc(-c2nc3cc(N4CCC4)ccc3n2C2COC2)cc(O)c1O [Example 284, 5-(5-(azetidin-1-yl)-1-(oxetan-3-yl)-1H-benzo[d]imidazol-2-yl)-3-methoxybenzene-1,2-diol] |
| 1000 to 10000 | COc1cc(-c2nc3ccc(N4CCC4)cc3n2C2COC2)cc(O)c1O [Example 285, 5-(6-(azetidin-1-yl)-1-(oxetan-3-yl)-1H-benzo[d]imidazol-2-yl)-3-methoxybenzene-1,2-diol] |
| 1000 to 10000 | COc1cc(-c2nc3ccc(N4CCOCC4)cc3n2C2CCOC2)c(C)c(O)c1O (stereo not shown) [Example 286, 6-methoxy-3-methyl-4-(6-morpholino-1-(tetrahydrofuran-3-yl)-1H-benzo[d]imidazol-2-yl)benzene-1,2-diol] |
| 1000 to 10000 | COc1cc(-c2nc3ccc(N4CCC4)cc3n2C2COC2)c(F)c(O)c1O [Example 288, 4-(6-(azetidin-1-yl)-1-(oxetan-3-yl)-1H-benzo[d]imidazol-2-yl)-3-fluoro-6-methoxybenzene-1,2-diol] |
| 1000 to 10000 | COc1cc(-c2nc3cc(N4CC(O)C4)ccc3n2C2COC2)c(F)c(O)c1O [Example 294, 3-fluoro-4-(5-(3-hydroxyazetidin-1-yl)-1-(oxetan-3-yl)-1H-benzo[d]imidazol-2-yl)-6-methoxybenzene-1,2-diol] |
| 1000 to 10000 | COc1c(O)c(O)cc(-c2nc3cc(N4CCC4)ccc3n2C2COC2)c1F [Example 298, 5-(5-(azetidin-1-yl)-1-(oxetan-3-yl)-1H-benzo[d]imidazol-2-yl)-4-fluoro-3-methoxybenzene-1,2-diol] |
| 10000 to 100000 | COc1c(C)c(-c2nc3cc(N4CCC4)ccc3n2C2CCC2)cc(O)c1O [Example 299, 5-(5-(azetidin-1-yl)-1-cyclobutyl-1H-benzo[d]imidazol-2-yl)-3-methoxy-4-methylbenzene-1,2-diol] |
| ≤ 100 | CNC(=O)c1ccc2nc(-c3cc(OC)c(O)c(O)c3F)n(C3CCC3)c2c1 [Example 309, 1-cyclobutyl-2-(2-fluoro-3,4-dihydroxy-5-methoxyphenyl)-N-methyl-1H-benzo[d]imidazole-6-carboxamide] |
| 100 to 1000 | COc1cc(-c2nc3cc(NC(C)=O)ccc3n2C2CCC2)c(F)c(O)c1O [Example 313, N-(1-cyclobutyl-2-(2-fluoro-3,4-dihydroxy-5-methoxyphenyl)-1H-benzo[d]imidazol-5-yl)acetamide] |
